# Source: PMC8698454, “Anti-Colonization Effect of Au Surfaces with Self-Assembled Molecular Monolayers Functionalized with Antimicrobial Peptides on S. epidermidis” (Antibiotics, 2021)
# Like-named read-outs stand apart in the source and are kept apart here. Where a SMILES comes first, the peptide text is derived from it. [ ]: non-standard residue; d: D form. Lys(N3) = [N-]=[N+]=NCCCC[C@H](N)C(=O)O
# Key:
# [1] = tested on: Escherichia coli ATCC 25922; assay type: cell-based; conditions: for Antimicrobial Activity (MIC) E. coli: ATCC 25922; for MIC E. coli ATCC 25922: Table S3
# Description: (§1) The minimal inhibitory concentration (MIC) of peptides 1a, 1b, 2a, and 2b were determined by broth microdilution according to the Clinical Laboratory Standard Institute (CLSI) method […]-A9. The MICs of the peptides 1c, 1d, 2c, and 2d were determined by broth dilution according to the European Committee for Antimicrobial Susceptibility Testing (EUCAST). Final concentrations of 0.5-256 μg/mL were tested against a panel of reference bacteria-S. aureus (ATCC 9144), S. epidermidis (1457), E. coli (ATCC 25922), and P. aeruginosa (ATCC 27853). Each strain was tested in biological triplicate. The MIC values were defined as the lowest concentration of the peptides resulting in no visual growth.
# [2] = tested on: Staphylococcus aureus ATCC 9144; assay type: cell-based; conditions: for Antimicrobial Activity (MIC) S. aureus: ATCC 9144; for MIC S. aureus ATCC 9144: Table S3
# Description: as §1
# [3] = tested on: Staphylococcus epidermidis 1457; assay type: cell-based; conditions: for MIC S. epidermidis 1457: Table S3
# Description: as §1
# [4] = tested on: Pseudomonas aeruginosa ATCC 27853; assay type: cell-based; conditions: for Antimicrobial Activity (MIC) P. aeruginosa: ATCC 27853; for MIC P. aeruginosa ATCC 27853: Table S3
# Description: as §1
# Gram-positive bacteria = assay type: cell-based, S. aureus and S. epidermidis
# Description: as §1
# [5] = technical replicate 1, biological replicate BR1
# [6] = technical replicate 1, biological replicate BR2
# [7] = technical replicate 1, biological replicate BR3
# [8] = technical replicate 2, biological replicate BR1
# [9] = technical replicate 2, biological replicate BR2
# [10] = technical replicate 2, biological replicate BR3
# [11] = technical replicate 3, biological replicate BR1
# [12] = technical replicate 3, biological replicate BR2
# [13] = technical replicate 3, biological replicate BR3
# [14] = broth microdilution CLSI M07-A9 (1a,1b,2a,2b) or broth dilution EUCAST (1c,1d,2c,2d), 0.5-256 µg/mL tested, biological triplicate, no visual growth
# [15] = broth microdilution CLSI M07-A9 (1a,1b,2a,2b) or broth dilution EUCAST (1c,1d,2c,2d), 0.5-256 µg/mL tested, biological triplicate, lowest concentration with no visual growth
# [16] = strain 1457, broth microdilution CLSI M07-A9 (1a,1b,2a,2b) or broth dilution EUCAST (1c,1d,2c,2d), 0.5-256 µg/mL tested, biological triplicate, no visual growth
compound,measurement,setting,value
[N-]=[N+]=NCCCC[C@@H]1NC(=O)[C@H](Cc2ccccc2)NC(=O)[C@H](CCCNC(=N)N)NC(=O)[C@H](Cc2c[nH]c3ccccc23)NC(=O)[C@H](Cc2c[nH]c3ccccc23)NC(=O)[C@H](CCCNC(=N)N)NC1=O [1d] (cyclo(RWWRF[Lys(N3)])),Antimicrobial Activity (MIC) E. coli,[1],64 µg/mL
same,MIC E. coli ATCC 25922,[1]; [5],64 µg/mL
same,MIC E. coli ATCC 25922,[1]; [6],64 µg/mL
same,MIC E. coli ATCC 25922,[1]; [7],64 µg/mL
same,MIC E. coli ATCC 25922,[1]; [8],64 µg/mL
same,MIC E. coli ATCC 25922,[1]; [9],64 µg/mL
same,MIC E. coli ATCC 25922,[1]; [10],64 µg/mL
same,MIC E. coli ATCC 25922,[1]; [11],64 µg/mL
same,MIC E. coli ATCC 25922,[1]; [12],64 µg/mL
same,MIC E. coli ATCC 25922,[1]; [13],64 µg/mL
same,Antimicrobial Activity (MIC) S. aureus,[2],8 µg/mL
same,MIC S. aureus ATCC 9144,[2]; [5],8 µg/mL
same,MIC S. aureus ATCC 9144,[2]; [6],16 µg/mL
same,MIC S. aureus ATCC 9144,[2]; [7],8 µg/mL
same,MIC S. aureus ATCC 9144,[2]; [8],8 µg/mL
same,MIC S. aureus ATCC 9144,[2]; [9],16 µg/mL
same,MIC S. aureus ATCC 9144,[2]; [10],8 µg/mL
same,MIC S. aureus ATCC 9144,[2]; [11],8 µg/mL
same,MIC S. aureus ATCC 9144,[2]; [12],16 µg/mL
same,MIC S. aureus ATCC 9144,[2]; [13],16 µg/mL
same,Antimicrobial Activity (MIC) S. epidermidis,[3]; 1457,8 µg/mL
same,MIC S. epidermidis 1457,[3]; [5],8 µg/mL
same,MIC S. epidermidis 1457,[3]; [6],8 µg/mL
same,MIC S. epidermidis 1457,[3]; [7],16 µg/mL
same,MIC S. epidermidis 1457,[3]; [8],8 µg/mL
same,MIC S. epidermidis 1457,[3]; [9],8 µg/mL
same,MIC S. epidermidis 1457,[3]; [10],16 µg/mL
same,MIC S. epidermidis 1457,[3]; [11],8 µg/mL
same,MIC S. epidermidis 1457,[3]; [12],8 µg/mL
same,MIC S. epidermidis 1457,[3]; [13],16 µg/mL
same,Antimicrobial Activity (MIC) P. aeruginosa,[4],128 µg/mL
same,MIC P. aeruginosa ATCC 27853,[4]; [5],128 µg/mL
same,MIC P. aeruginosa ATCC 27853,[4]; [6],256 µg/mL
same,MIC P. aeruginosa ATCC 27853,[4]; [7],128 µg/mL
same,MIC P. aeruginosa ATCC 27853,[4]; [8],128 µg/mL
same,MIC P. aeruginosa ATCC 27853,[4]; [9],256 µg/mL
same,MIC P. aeruginosa ATCC 27853,[4]; [10],128 µg/mL
same,MIC P. aeruginosa ATCC 27853,[4]; [11],128 µg/mL
same,MIC P. aeruginosa ATCC 27853,[4]; [12],256 µg/mL
same,MIC P. aeruginosa ATCC 27853,[4]; [13],128 µg/mL
same,MIC against Gram-positive bacteria,Gram-positive bacteria,8 µg/mL
"N3-PEG400-RWWRF [1b, azidopeptide N3-PEG400-RWWRF, PEG400-linked, amidated C-terminus]",Antimicrobial Activity (MIC) E. coli,[1]; [14],>256 µg/mL
same,MIC E. coli ATCC 25922,[1]; [5],> 256 µg/mL
same,MIC E. coli ATCC 25922,[1]; [6],> 256 µg/mL
same,MIC E. coli ATCC 25922,[1]; [7],> 256 µg/mL
same,MIC E. coli ATCC 25922,[1]; [8],> 256 µg/mL
same,MIC E. coli ATCC 25922,[1]; [9],> 256 µg/mL
same,MIC E. coli ATCC 25922,[1]; [10],> 256 µg/mL
same,MIC E. coli ATCC 25922,[1]; [11],> 256 µg/mL
same,MIC E. coli ATCC 25922,[1]; [12],> 256 µg/mL
same,MIC E. coli ATCC 25922,[1]; [13],> 256 µg/mL
same,Antimicrobial Activity (MIC) S. aureus,[2]; [15],128 µg/mL
same,MIC S. aureus ATCC 9144,[2]; [5],128 µg/mL
same,MIC S. aureus ATCC 9144,[2]; [6],128 µg/mL
same,MIC S. aureus ATCC 9144,[2]; [7],128 µg/mL
same,MIC S. aureus ATCC 9144,[2]; [8],128 µg/mL
same,MIC S. aureus ATCC 9144,[2]; [9],128 µg/mL
same,MIC S. aureus ATCC 9144,[2]; [10],128 µg/mL
same,MIC S. aureus ATCC 9144,[2]; [11],128 µg/mL
same,MIC S. aureus ATCC 9144,[2]; [12],128 µg/mL
same,MIC S. aureus ATCC 9144,[2]; [13],128 µg/mL
same,MIC S. epidermidis 1457,[3]; [5],128 µg/mL
same,MIC S. epidermidis 1457,[3]; [6],128 µg/mL
same,MIC S. epidermidis 1457,[3]; [7],64 µg/mL
same,MIC S. epidermidis 1457,[3]; [8],128 µg/mL
same,MIC S. epidermidis 1457,[3]; [9],128 µg/mL
same,MIC S. epidermidis 1457,[3]; [10],128 µg/mL
same,MIC S. epidermidis 1457,[3]; [11],128 µg/mL
same,MIC S. epidermidis 1457,[3]; [12],128 µg/mL
same,MIC S. epidermidis 1457,[3]; [13],64 µg/mL
same,Antimicrobial Activity (MIC) S. epidermidis,[3]; [16],128 µg/mL
same,Antimicrobial Activity (MIC) P. aeruginosa,[4]; [14],>256 µg/mL
same,MIC P. aeruginosa ATCC 27853,[4]; [5],> 256 µg/mL
same,MIC P. aeruginosa ATCC 27853,[4]; [6],> 256 µg/mL
same,MIC P. aeruginosa ATCC 27853,[4]; [7],> 256 µg/mL
same,MIC P. aeruginosa ATCC 27853,[4]; [8],> 256 µg/mL
same,MIC P. aeruginosa ATCC 27853,[4]; [9],> 256 µg/mL
same,MIC P. aeruginosa ATCC 27853,[4]; [10],> 256 µg/mL
same,MIC P. aeruginosa ATCC 27853,[4]; [11],> 256 µg/mL
same,MIC P. aeruginosa ATCC 27853,[4]; [12],> 256 µg/mL
same,MIC P. aeruginosa ATCC 27853,[4]; [13],> 256 µg/mL
"N3-PEG400-RBBRF [2b, azidopeptide N3-PEG400-RBBRF, B = biphenylalanine, amidated C-terminus]",Antimicrobial Activity (MIC) E. coli,[1]; [14],128 µg/mL
same,MIC E. coli ATCC 25922,[1]; [5],128 µg/mL
same,MIC E. coli ATCC 25922,[1]; [6],128 µg/mL
same,MIC E. coli ATCC 25922,[1]; [7],128 µg/mL
same,MIC E. coli ATCC 25922,[1]; [8],128 µg/mL
same,MIC E. coli ATCC 25922,[1]; [9],128 µg/mL
same,MIC E. coli ATCC 25922,[1]; [10],128 µg/mL
same,MIC E. coli ATCC 25922,[1]; [11],128 µg/mL
same,MIC E. coli ATCC 25922,[1]; [12],128 µg/mL
same,MIC E. coli ATCC 25922,[1]; [13],128 µg/mL
same,Antimicrobial Activity (MIC) S. aureus,[2]; [15],32 µg/mL
same,MIC S. aureus ATCC 9144,[2]; [5],16 µg/mL
same,MIC S. aureus ATCC 9144,[2]; [6],32 µg/mL
same,MIC S. aureus ATCC 9144,[2]; [7],16 µg/mL
same,MIC S. aureus ATCC 9144,[2]; [8],16 µg/mL
same,MIC S. aureus ATCC 9144,[2]; [9],32 µg/mL
same,MIC S. aureus ATCC 9144,[2]; [10],32 µg/mL
same,MIC S. aureus ATCC 9144,[2]; [11],16 µg/mL
same,MIC S. aureus ATCC 9144,[2]; [12],32 µg/mL
same,MIC S. aureus ATCC 9144,[2]; [13],32 µg/mL
same,MIC S. epidermidis 1457,[3]; [5],16 µg/mL
same,MIC S. epidermidis 1457,[3]; [6],16 µg/mL
same,MIC S. epidermidis 1457,[3]; [7],16 µg/mL
same,MIC S. epidermidis 1457,[3]; [8],16 µg/mL
same,MIC S. epidermidis 1457,[3]; [9],16 µg/mL
same,MIC S. epidermidis 1457,[3]; [10],16 µg/mL
same,MIC S. epidermidis 1457,[3]; [11],16 µg/mL
same,MIC S. epidermidis 1457,[3]; [12],16 µg/mL
same,MIC S. epidermidis 1457,[3]; [13],16 µg/mL
same,Antimicrobial Activity (MIC) S. epidermidis,[3]; [16],16 µg/mL
same,Antimicrobial Activity (MIC) P. aeruginosa,[4]; [14],256 µg/mL
same,MIC P. aeruginosa ATCC 27853,[4]; [5],128 µg/mL
same,MIC P. aeruginosa ATCC 27853,[4]; [6],256 µg/mL
same,MIC P. aeruginosa ATCC 27853,[4]; [7],256 µg/mL
same,MIC P. aeruginosa ATCC 27853,[4]; [8],128 µg/mL
same,MIC P. aeruginosa ATCC 27853,[4]; [9],256 µg/mL
same,MIC P. aeruginosa ATCC 27853,[4]; [10],256 µg/mL
same,MIC P. aeruginosa ATCC 27853,[4]; [11],128 µg/mL
same,MIC P. aeruginosa ATCC 27853,[4]; [12],256 µg/mL
same,MIC P. aeruginosa ATCC 27853,[4]; [13],256 µg/mL
